Test results as given in PubChem BioAssay AID1963828 (Molecular Pharmacology Branch, DTP, NCI, 2024).

Tested on: 991263-137-R1-J2-PDC complex spheroid viability
Assay: Anticancer human tumor 991263-137-R1-J2-PDC patient-derived colon adenocarcinoma cell line growth inhibition [POLQ]
Details: for IC50: curve of first compound; for viability, T/C: stronger effect = lower value
Summary of the method: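 Growth inhibition in 3D: complex spheroids (tumor PDC, HUVEC, MSC) treated with POLQ inhibitor combinations; where Cmax unknown, highest tested concentration 10 microM, except SN-38 at 1 microM.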
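Further: spheroids exposed to compounds for 7 days before readout.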
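Wherever viability, T/C is given: 100% = DMSO vehicle control viability.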

## CC1COCCN1c1cc(C2(O)CC3CCC(C2)O3)c2cnn(-c3ccn[nH]3)c2n1 (configuration not stated) + Nc1ccc(C#CCN(C(=O)Cc2ncc(C(F)(F)F)cc2C(F)(F)F)c2ccc(F)cc2)nn1
Second compound 0.0316 µM
  IC50: 1.97 µM
Second compound 0.1 µM
  IC50: 1.83 µM
Second compound 0.316 µM
  IC50: 1.97 µM
Second compound 1 µM
  IC50: 1.81 µM
Second compound 3.16 µM
  IC50: 1.25 µM
Second compound 10 µM
  IC50: 0.882 µM
Second compound 0.0316 µM, first compound 0.0316 µM
  viability, T/C: 105%
Second compound 0.0316 µM, first compound 0.1 µM
  viability, T/C: 104%
Second compound 0.0316 µM, first compound 0.316 µM
  viability, T/C: 83%
Second compound 0.0316 µM, first compound 1 µM
  viability, T/C: 62.2%
Second compound 0.0316 µM, first compound 3.16 µM
  viability, T/C: 42.5%
Second compound 0.0316 µM, first compound 10 µM
  viability, T/C: 30.5%
Second compound 0.1 µM, first compound 0.0316 µM
  viability, T/C: 88.2%
Second compound 0.1 µM, first compound 0.1 µM
  viability, T/C: 97.1%
Second compound 0.1 µM, first compound 0.316 µM
  viability, T/C: 80.2%
Second compound 0.1 µM, first compound 1 µM
  viability, T/C: 59%
Second compound 0.1 µM, first compound 3.16 µM
  viability, T/C: 43.2%
Second compound 0.1 µM, first compound 10 µM
  viability, T/C: 30.8%
Second compound 0.316 µM, first compound 0.0316 µM
  viability, T/C: 109%
Second compound 0.316 µM, first compound 0.1 µM
  viability, T/C: 108%
Second compound 0.316 µM, first compound 0.316 µM
  viability, T/C: 89.9%
Second compound 0.316 µM, first compound 1 µM
  viability, T/C: 63.4%
Second compound 0.316 µM, first compound 3.16 µM
  viability, T/C: 40.8%
Second compound 0.316 µM, first compound 10 µM
  viability, T/C: 33.1%
Second compound 1 µM, first compound 0.0316 µM
  viability, T/C: 110%
Second compound 1 µM, first compound 0.1 µM
  viability, T/C: 101%
Second compound 1 µM, first compound 0.316 µM
  viability, T/C: 81.5%
Second compound 1 µM, first compound 1 µM
  viability, T/C: 61.5%
Second compound 1 µM, first compound 3.16 µM
  viability, T/C: 38.9%
Second compound 1 µM, first compound 10 µM
  viability, T/C: 32.7%
Second compound 3.16 µM, first compound 0.0316 µM
  viability, T/C: 96.8%
Second compound 3.16 µM, first compound 0.1 µM
  viability, T/C: 88.7%
Second compound 3.16 µM, first compound 0.316 µM
  viability, T/C: 77.4%
Second compound 3.16 µM, first compound 1 µM
  viability, T/C: 52.8%
Second compound 3.16 µM, first compound 3.16 µM
  viability, T/C: 36.5%
Second compound 3.16 µM, first compound 10 µM
  viability, T/C: 31%
Second compound 10 µM, first compound 0.0316 µM
  viability, T/C: 78.3%
Second compound 10 µM, first compound 0.1 µM
  viability, T/C: 82.1%
Second compound 10 µM, first compound 0.316 µM
  viability, T/C: 67.3%
Second compound 10 µM, first compound 1 µM
  viability, T/C: 45.7%
Second compound 10 µM, first compound 3.16 µM
  viability, T/C: 36.4%
Second compound 10 µM, first compound 10 µM
  viability, T/C: 24.5%
